Measurements from US4311700A, “Pyrimidobenzodiazepinones, their use and medicaments containing them” (priority 1979, dated 1982).

What was measured:
[1] = tested on: Shay rats; test: Antiulcerogenic action (protective action on the stomach) in Shay rats, pylorus ligature plus acetylsalicylic acid; format: in vivo, rat; conditions: for ED50: Rattus norvegicus, po, p.o. 1 hour before pylorus ligature, dose reducing ulcer index by 50% vs control, read-out: Protective action on the stomach ED50 administered perorally to rats; for TQ LD50/ED50 (therapeutic quotient): LD50 i.v. mice / ED50 p.o. rats
Experimental: The effect of the compounds according to the invention on the formation, in rats, of gastric ulcers provoked by a pylorus ligature and 100 mg/kg of acetylsalicyclic acid, (administered orally) is shown in table II.
ED50 = the dose which reduces the ulcer index for the group treated
by 50% compared with the control group
The anti-ulcerogenic action is tested by a method using the so-caled Shay rats:
(§1) Ulcers are provoked in rats which have been starved for 24 hours (female rats, 180 to 200 g, 4 animals in a cage with a high grille) by means of a pylorus ligature (under anaesthesia with diethyl ether) and oral administration of 100 mg/10 ml/kg of acetylsalicyclic acid. The substances to be tested are administered orally (10 ml/kg) 1 hour before the pylorus ligature. The closure of the wound is effected by means of Michel's clips. The animals are killed 4 hours afterwards under ether anaesthesia by dislocating the atlas, and the stomach is cut out. The stomach is opened longitudinally and is fixed on a cork slab, the quantity of gastric juice secreted (volume) and the hydrochloric acid content having been determined beforehand; the number and size (= diameter) of ulcers present are determined by means of a stereomicroscope at a 10-fold magnification. The product of the degree of severity (in accordance with the following rating scale) and the number of the ulcers is used as an individual ulcer index.
ulcer diameter 0.1-1.4 mm
The reduction in the average ulcer index in each group treated compared with that of the control group (=100%) is used as a measure of the anti-ulcerogenic effect. The ED50 indicates the dose which reduces the average ulcer index by 50%.

[2] = tested on: stomach secretion; test: Inhibition of stomach secretion (volume and hydrochloric acid) in rats; format: in vivo, rat; conditions: 4 hours after administration of the antiulcerogenic ED50
Experimental: *% inhibition = inhibition (in %) of stomach secretion 4 hours after
administration of the antiulcerogenic ED50
as §1

[3] = Determination of toxicity, intravenous, mice; conditions: mouse, in vivo, i.v., female NMRI mice, 7 days observation, read-out: Toxicity LD50 administered intravenously to mice
Experimental: LD50 = the dose at which 50% of the animals die
The toxicity investigations are carried out on female NMRI mice (body weight 22 to 26 g). The animals (5 animals per dose) receive feed and water ad lib. Various doses of the substances are administered intravenously (duration of injection 1 minute). The observation period is 7 days. The LD50 (the dose at which 50% of the animals die) is determined by means of a linear regression.

SMILES	inhibitory effect (anti-ulcerogenic action) ([1]; 30 mg/kg, p.o., rats)	ED50 [1] [mg/kg]	% inhibition of stomach secretion in rats, hydrochloric acid [2] [%]	% inhibition of stomach secretion in rats, volume [2] [%]	TQ LD50/ED50 (therapeutic quotient) [1]	anti-ulcerogenic action at high dose ([1]; even at 300 mg/kg, rats)	dose/action curve (dose dependence of the action) ([1]; rats, p.o.)	LD50 at 168 h [3] [mg/kg]
CN(C)CCN(C)CC(=O)N1c2ccccc2N(C)C(=O)c2cnc(-c3ccccc3)nc21 [Compound 5, 11-[N-(2-dimethylaminoethyl)-N-methylamino]acetyl-6-methyl-2-phenyl-5,6-dihydropyrimido[4,5-b][1,5]benzodiazepin-5-one]	up to 100%	< 10						
CC1(C)[C@@H](OC(=O)CCC(=O)O)CC[C@]2(C)[C@H]3C(=O)C=C4[C@@H]5C[C@@](C)(C(=O)O)CC[C@]5(C)CC[C@@]4(C)[C@]3(C)CC[C@@H]12 [Compound 1, Carbenoxolone, reference compound]		~70	4	7	~ 4.1	not possible to achieve any substantial increase in the anti-ulcerogenic action	the dose/action curve then flattens out very considerably	290
CN1CCN(CC(=O)N2c3ccccc3NC(=O)c3cncnc32)CC1 [Compound 2, 11-[(4-Methyl-1-piperazinyl)acetyl]-5,6-dihydropyrimido[4,5-b][1,5]benzodiazepin-5-one]		12	5	10	15			180
CN1C(=O)c2cnc(-c3ccccc3)nc2N(C(=O)CN2CCCCC2)c2ccccc21 [Compound 4, 6-Methyl-2-phenyl-11-piperidinoacetyl-5,6-dihydropyrimido[4,5-b][1,5]benzodiazepin-5-one]		~8	22	32	~ 20			160
CN1CCN(CC(=O)N2c3ccccc3N(C)C(=O)c3cnc(-c4ccccc4)nc32)CC1 [Compound 3, 6-Methyl-11-[(4-methyl-1-piperazinyl)acetyl]-2-phenyl-5,6-dihydropyrimido[4,5-b][1,5]benzodiazepin-5-one]		9		7	10.5			95
